Data taken from patent publication US12636368B2, “Ionizable lipids for nucleic acid delivery” (Global Life Sciences Solutions Canada ULC, priority 2019, dated 2026).
Read-outs that look alike come from different tables or passages of the source.

Legend:
[1] = TNS assay, surface pKa of lipid nanoparticles; assay type: physicochemical
Experimental: In embodiments of the invention, the experimental pKa of formulated lipid nanoparticles comprising lipids in Table 1 is calculated using the 2-(p-toluidinyl)naphthalene-6-sulfonic acid (TNS) assay. The procedure for the TNS assay is described in Example 25.
The pKa of each cationic lipid was determined in lipid nanoparticles using an assay based on fluorescence of 6-(p-Toluidino)-2-naphthalenesulfonic acid sodium salt (TNS, Sigma Aldrich), which is a fluorescent probe for the conformational state of proteins5. Empty lipid nanoparticles comprising ionizable lipid in LM02 composition in distilled water at a concentration of 3.125 mM total lipid are formulated using NanoAssemblr® Spark™, and were then was characterized for LNP quality on the Zetasizer™ using a 30× dilution with 1×PBS in the low volume cuvette. Lipid nanoparticles were further diluted 4× using distilled water to 0.781 mM total lipid. TNS was prepared as a 25 μM stock solution in distilled water. Then 6.4 μL of diluted LNP samples of 0.781 mM total lipid were mixed with 10 μL of diluted TNS to a final volume of 250 μL with buffer containing 10 mM HEPES, 10 mM MES, 10 mM NH4OAc and 130 mM NaCl where the pH ranged from 3 to 9 in 0.5 pH increments.
Samples were mixed thoroughly, and the fluorescence intensity was measured at room temperature in a BioTek™ Synergy™ H1 Hybrid Multi-Mode Monochromator™ Fluorescence Microplate Reader using excitation and emission wavelengths of 321 nm and 445 nm respectively. A sigmoidal best fit analysis was applied to the fluorescence data using GraphPad Prism™ software, and the pKa was measured as the pH at half-maximal fluorescence intensity.

C56BL/6 mice = assay: hEPO expression in mice after i.v. EPO mRNA LNPs; assay type: in vivo
Experimental: C56BL/6 mice were administered i.v doses of 0.5, 1 or 3 mg/Kg of recombinant human EPO-encoded mRNA LNPs containing ionizable lipids MC3, PNI 76, PNI 121 and PNI 127 using the LM02 composition at N/P 6; hEPO protein was measured using Quantikine® IVD® ELISA Human Erythropoietin Immunoassay protocol. Results for the 0.5 mg/Kg dosage are shown in the scatter plot of FIG. 7. Results for the 1 and 3 mg/Kg doses are shown in FIG. 8 as scatter plots of hEPO expression levels at 6 h (left) and 24 h (right).
In another study, 5-moU EPO mRNA encapsulated in LM02 LNP at an N/P ratio of 6 and a dose of 0.5 mg/Kg comprising a variety of […] ionizable lipids (PNI 336, PNI 534, PNI 535, PNI 342, PNI 321, PNI 532, PNI 538, PNI 541, PNI 325, PNI 328, PNI 329, PNI 539, PNI 540, PNI 127); along with MC3 as a control, were administered. hEPO protein was measured using ProteinSimple® Ella platform, and the rhEPO microfluidic cartridges provided by the manufacturer.
Blood from mice treated with hEPO mRNA LNP was analyzed using an automated ELISA platform “ELLA”, using Simplex™ antibody panel cartridges. Human-specific EPO and mouse-specific IL-5, IL-6, TNF-α, and IFN-γ were measured (reagents from Bio-techne). Briefly, 50 μL of sample reagent (diluted biological sample, quality control, or calibration point sample) were aliquoted into each sample inlet, and 1 mL of wash buffer was added into corresponding inlets on the cartridge. All immunoassay operations (including prime system, flow samples and split them into channels, sample incubation, wash, rehydrate and flow secondary antibody, wash, rehydrate and flow streptavidin dye conjugate, incubate, wash, scan) were processed automatically. Raw signal levels (relative fluorescence units, RFUs), mean signal values, standard deviation, and coefficient of variance (CV) for each glass nanoReactor (GNR) value are provided. RFU values are automatically backfit by the ELLA to produce an analyte concentration per analyte/sample using the manufacturer given calibration methodology.
Reagents were acquired from Quantikine, Minneapolis, MN. The assay was performed as directed on the Quantikine® IVD® ELISA Human Erythropoietin Immunoassay protocol REF DEP00 Package Insert. Briefly; Sera samples of 6 h, and/or 24 h post intravenous administration of 0.5, 1 or 3 mg/kg dose of EPO-encoded mRNA were analyzed for EPO expression analysis, and expressed as mIU/mL. To an EPO antibody pre-coated 96-well microplate, provided by the manufacturer, standards, appropriately diluted sera, and the Horseradish peroxidase (HRP)-conjugated rabbit anti-EPO polyclonal antibody and TMB (Tetramethylbenzidine) as the substrate were added and incubated for 20 minutes. Stop solution (Sulfuric Acid) was added to the wells and the plate was read at 450 nm and the concentration of EPO was calculated. The amount of colour generated is directly proportional to the amount of the conjugate bound to EPO antibody, which in turn is directly proportional to the amount of EPO in the specimen or standard. A standard curve was generated by plotting absorbance versus concentration of provided standards. Quantikine® Human Serum Controls (CEP 01, CEP 03) were used for internal controls.

[2] = LNP size and PDI by dynamic light scattering; assay type: physicochemical
Experimental: After the lipid particles were made as described supra, particle size (hydrodynamic diameter of the particles) was determined by Dynamic Light Scattering (DLS) using a ZetaSizer™ Nano ZS™ (Malvern Instruments, UK). He/Ne laser tuned to 633 nm wavelength was used as the light source. Data were measured from the scattered intensity data conducted in backscattering detection mode (measurement angle=173). Measurements were an average of 10 runs of two cycles each per sample. Z-Average size was reported as the particle size, and is defined as the harmonic intensity averaged particle diameter.
(§1) Physical characteristics of lipid nanoparticle (LNP) compositions comprising compounds according to Formula (I) and that were manufactured on the NanoAssemblr® Spark and Benchtop, are shown in Tables 6 and 7 below. Size, size variation of the LNP (PDI), encapsulation efficiency, and pKa are shown. The physical characteristics of these LNP are important from a standpoint of stability, biodistribution, and cell membrane crossing. There was good encapsulation in all the formulations, with polydispersity (PDI) under 0.3. Size and PDI were measured using dynamic light scattering techniques, and nucleic acid encapsulation efficiency was calculated from a modified Quant-iT RiboGreen RNA assay.

[3] = Nucleic acid encapsulation efficiency by RiboGreen assay; assay type: physicochemical
Experimental: Messenger RNA or plasmid NAT was diluted using sodium acetate buffer to the required concentration. Lipid nucleic acid particle samples were then prepared by running both fluids using the NanoAssemblr® Spark instrument. […] The lipid nucleic acid particles made in the instrument were immediately diluted down with 48 μL Ca and Mg free 1×PBS at pH 7.4 in the aqueous output well. These nucleic acid lipid particles were immediately collected into microcentrifuge tubes containing 96 μL of Ca and Mg free 1×PBS at pH 7.4. Encapsulation efficiency was measured by a modified Ribogreen™ assay (Quanti-iT RiboGreen™ RNA assay kit, Fisher). Observed particle attributes were generally sized from 60-200 nm for mRNA, depending on lipid composition and method of production.
as §1

[4] = system: isolated primary human T cells; assay: GFP mRNA-LNP transfection of primary human T cells, flow cytometry; assay type: cell-based
Experimental: Reagents were from Stemcell Technologies unless otherwise stated. Tcells were isolated from a single donor. At 48 h following lipid particle mRNA exposure, the treated T cells were harvested by transferring the cell suspensions to pre-labeled 1.5 mL tubes and centrifuged 300×g at 4 degrees C. for 10 minutes. Supernatant was removed and the pellet resuspended in PBS. An amount of 0.5 ul of BD Horizon™ Fixable Viability Stain 575V™ (BD Biosciences), was added, and the mixture incubated in the dark for 10 minutes at RT. This stain binds to amines.
The cells were centrifuged again as before, then washed twice with 1 mL of stain buffer (BSA, BD Pharminigen), and the washed pellet was diluted in 100 μl BSA. The following antibodies were added to each tube of treated cells in 2 μl volumes: CD25, CD8, CD4, (PerCP-Cy™ 5.5 Mouse Anti Human CD25, BV786 Mouse Anti-Human CD8 Clone RPA-T8, APC-Cy™7 Mouse Anti-Human CD4 Clone SK3 (all from BD Pharmingen) with the exception of the controls: in the eGFP only sample and viability control, no antibody was added. In the single stain compensation tubes, only one antibody per tube was added.
The tubes were incubated at 4 degrees C. for 30 min, whereupon […] of stain buffer was added, and the cells were centrifuged again. Cells were washed once with 1 mL of stain buffer and spun down again as in step one. Cell pellets were resuspended in 1 mL of stain buffer and added to pre-labeled flow tubes with cell strainer caps (Corning Falcon). […]
GFP MFI was measured by flow cytometry 48 hours after LNP addition. T cells were isolated from whole blood using a negative isolation procedure (EasySep™ Human T Cell Isolation Kit, Stemcell Technologies). T cells were dosed with mRNA-LNPs 3 days after activation with 500 ng of encapsulated mRNA per 125,000 cells. The LNP were CT10 compositions with an N/P of 8. Transfection efficiency (upper graph) and MFI (lower graph) were measured by flow cytometry 48 h after LNP addition.

human T cells = assay: eGFP ELISA after eGFP mRNA LNP treatment of human T cells; assay type: cell-based; conditions: Table 4; for Fold Change Relative to MC3: eGFP (pg) relative to MC3; for eGFP: quantity of expressed eGFP, eGFP mRNA LNPs, CT10
Experimental: Reagents were acquired from Abcam, Cambridge, UK unless otherwise stated. […] The assay was performed as directed by the eGFP SimpleStep ELISA® Kit protocol. Briefly; frozen human T cells, previously isolated from fresh human whole blood using a negative selection protocol, were thawed and activated using a triple activator. […] After 48 hours of treatment with mRNA LNPs the T cells were harvested and lysed for total eGFP content.
In order to expose the isolated and activated T cells (Day 0) to the formulated mRNA, 2 ug of CleanCap™ eGFP (Trilink Biotechnologies, San Diego, CA) mRNA-containing LNP was added to 500,000 T cells in 1 mL of complete T cell media, with 1 ug/mL of Recombinant Human ApoE4 (“ApoE”) (Peprotech Inc., Montreal, Canada).
Frozen human T cells, previously isolated from fresh human whole blood using a negative selection protocol, were thawed and activated using a triple activator. At 10 days post-activation, T cells were dosed with CT10 mRNA LNPs LNP comprising DLin-MC3-DMA, PNI 76, PNI 119, PNI 120, PNI 121, and PNI 122 encoding eGFP at 2 pg mRNA per 500,000 cells and N/P 10. Protein expression was measured after 48 hours by eGFP ELISA.

[5] = Table 1, formulated lipid nanoparticles, TNS assay, read-out: Exp. pKa
[6] = Table 6, GFP-encoded LNPs, CT10, N/P 8
[7] = Table 7, EPO mRNA LNPs, LM02, N/P 6
[8] = Table 4, determined by TNS assay, read-out: pKa Ex.

Row | Compound | pKa [1, 5] | pKa ([1]; Table 8, read-out: Exp.pKa) | hEPO protein level compared with MC3 (C56BL/6 mice; FIG. 9, 5-moU EPO mRNA, LM02, N/P 6, 0.5 mg/Kg, 6 h) | protein expression in vivo compared with MC3 (C56BL/6 mice; summary, Table 7 and Figures) | Diameter (Z. ave, nm) [2, 6] | Polydispersity Index (PDI) [2, 6] | Diameter (Z. ave, nm) [2, 7] | Polydispersity Index (PDI) [2, 7] | Encapsulation Efficiency (%) [3, 6] | Encapsulation Efficiency (%) [3, 7] | amount of protein produced (MFIs) compared with MC3 [4] | protein expression (GFP MFI) compared with MC3 ([4]; FIG. 5, CT10, N/P 8, 500 ng mRNA per 125,000 cells, 3 days after activation, 48 h) | amount of protein produced (MFI) in human T cells compared with MC3 ([4]; summary) | pKa [1, 8] | % eGFP + ([4]; Table 4, transfection efficiency, eGFP mRNA LNPs, CT10, N/P 8) | Fold Change Relative to MC3 (human T cells) | eGFP (human T cells)
1 | CCCCC/C=C\C/C=C\CCCCCCCC(=O)O[C@@H]1[C@@H](OC(=O)CCCCCCC/C=C\C/C=C\CCCCC)CO[C@@H]1COC(=O)CC1CCCCN1C (mixture of isomers) [PNI 540] | 5.6 | 5.6 | compare well to MC3 | equivalent to MC3 | 60.6 nm | 0.08 | 65.7 nm | 0.05 | 93.5% | 88.1% |  |  |  |  |  |  | 
2 | CCCCCCCCC1CC1CCCCCCCC(=O)O[C@@H]1[C@@H](OC(=O)CCCCCCCC2CC2CCCCCCCC)CO[C@@H]1COC(=O)C1(C)CCN(C)CC1 (mixture of isomers) [PNI 541] | 6.46 | 6.46 |  |  | 109.4 nm | 0.28 | 73.8 nm | 0.06 | 73.5% | 97.1% | better than MC3 | higher levels of protein expression than MC3 | better than MC3 |  |  |  | 
3 | CCCCC/C=C\C/C=C\CCCCCCCCC(CCCCCCCC/C=C\C/C=C\CCCCC)OC(=O)CCCN(C)C [MC 3, DLin-MC3-DMA, reference compound] |  |  |  |  |  |  |  |  |  |  |  |  |  | 5.99 | 58.95% | 1 | 1370.0 pg
4 | CCCCCCCCCCCCCC(=O)O[C@@H]1[C@@H](OC(=O)CCCCCCCCCCCCC)CO[C@@H]1COC(=O)CCCN(C)C [PNI] |  |  |  |  |  |  |  |  |  |  |  |  |  | 7.48 |  | 0.589 | 807.0 pg
